Source: PubChem BioAssay AID1963440 (Molecular Pharmacology Branch, DTP, NCI, 2024)

Tested on: NCI-H1417 complex spheroids, growth % test/control
Test: Anticancer human tumor NCI-H1417 cell line growth inhibition [Asc];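 further: spheroids exposed to compounds for 7 days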;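 on viability, T/C: 100% = DMSO vehicle control wells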
Conditions: for IC50: curve of first compound; for viability, T/C: stronger effect = lower value
Procedure, shortened: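 Tumor cells were grown as multicellular spheroids with stromal HUVEC and mesenchymal stem cells and treated singly or in combination. Concentrations fell in half-log steps from the clinical Cmax, or from 10 microM where none was known.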

[1] = second compound 0.01 µM, first compound 0.0316 µM
[2] = second compound 0.01 µM, first compound 0.1 µM
[3] = second compound 0.01 µM, first compound 0.316 µM
[4] = second compound 0.01 µM, first compound 1 µM
[5] = second compound 0.0316 µM, first compound 0.0316 µM
[6] = second compound 0.0316 µM, first compound 0.1 µM
[7] = second compound 0.0316 µM, first compound 0.316 µM
[8] = second compound 0.0316 µM, first compound 1 µM
[9] = second compound 0.1 µM, first compound 0.0316 µM
[10] = second compound 0.1 µM, first compound 0.1 µM
[11] = second compound 0.1 µM, first compound 0.316 µM
[12] = second compound 0.1 µM, first compound 1 µM
[13] = second compound 0.316 µM, first compound 0.0316 µM
[14] = second compound 0.316 µM, first compound 0.1 µM
[15] = second compound 0.316 µM, first compound 0.316 µM
[16] = second compound 0.316 µM, first compound 1 µM
[17] = second compound 1 µM, first compound 0.0316 µM
[18] = second compound 1 µM, first compound 0.1 µM
[19] = second compound 1 µM, first compound 0.316 µM
[20] = second compound 1 µM, first compound 1 µM
[21] = second compound 0.01 µM, first compound 0.00316 µM
[22] = second compound 0.01 µM, first compound 0.01 µM
[23] = second compound 0.0316 µM, first compound 0.00316 µM
[24] = second compound 0.0316 µM, first compound 0.01 µM
[25] = second compound 0.1 µM, first compound 0.00316 µM
[26] = second compound 0.1 µM, first compound 0.01 µM
[27] = second compound 0.316 µM, first compound 0.00316 µM
[28] = second compound 0.316 µM, first compound 0.01 µM
[29] = second compound 1 µM, first compound 0.00316 µM
[30] = second compound 1 µM, first compound 0.01 µM

Compound	IC50 (second compound 0.01 µM) [nM]	IC50 (second compound 0.0316 µM) [nM]	IC50 (second compound 0.1 µM) [nM]	IC50 (second compound 0.316 µM) [nM]	IC50 (second compound 1 µM) [nM]	viability, T/C [1] [%]	viability, T/C [2] [%]	viability, T/C [3] [%]	viability, T/C [4] [%]	viability, T/C [5] [%]	viability, T/C [6] [%]	viability, T/C [7] [%]	viability, T/C [8] [%]	viability, T/C [9] [%]	viability, T/C [10] [%]	viability, T/C [11] [%]	viability, T/C [13] [%]	viability, T/C [14] [%]	viability, T/C [17] [%]	viability, T/C [18] [%]	further results
C=CC(=O)N1CCN(c2nc(=O)n(-c3c(C)ccnc3C(C)C)c3nc(-c4c(O)cccc4F)c(F)cc23)C(C)C1 (stereo not given) + CNC(C)C(=O)NC1CN(S(=O)(=O)c2cccc(S(=O)(=O)N3CCC4CCC(C(=O)NC(c5ccccc5)c5ccccc5)N4C(=O)C(NC(=O)C(C)NC)C3)c2)CCC2CCC(C(=O)NC(c3ccccc3)c3ccccc3)N2C1=O	> 10000	> 10000	> 10000	> 10000	> 10000	94	90	97.6	96.2	88.1	99.8	89.9	94.4	99.3	87.5	96.7	84.6	94.3	90.9	101	viability, T/C (second compound 0.01 µM, first compound 3.16 µM): 102%; viability, T/C (second compound 0.01 µM, first compound 10 µM): 103%; viability, T/C (second compound 0.0316 µM, first compound 3.16 µM): 97.6%; viability, T/C (second compound 0.0316 µM, first compound 10 µM): 87.8%; viability, T/C [12]: 96.9%; viability, T/C (second compound 0.1 µM, first compound 3.16 µM): 92%; viability, T/C (second compound 0.1 µM, first compound 10 µM): 88.2%; viability, T/C [15]: 94.6%; viability, T/C [16]: 92.5%; viability, T/C (second compound 0.316 µM, first compound 3.16 µM): 93.8%; viability, T/C (second compound 0.316 µM, first compound 10 µM): 86.2%; viability, T/C [19]: 89.4%; viability, T/C [20]: 90.2%; viability, T/C (second compound 1 µM, first compound 3.16 µM): 104%; viability, T/C (second compound 1 µM, first compound 10 µM): 93.3%
COc1c(OCCCN2CCOCC2)ccc2c3n(c(=NC(=O)c4cnc(N)nc4)nc12)CCN3 + CNC(C)C(=O)NC1CN(S(=O)(=O)c2cccc(S(=O)(=O)N3CCC4CCC(C(=O)NC(c5ccccc5)c5ccccc5)N4C(=O)C(NC(=O)C(C)NC)C3)c2)CCC2CCC(C(=O)NC(c3ccccc3)c3ccccc3)N2C1=O	> 1000	> 1000	> 1000	> 1000	> 1000	100	82.3	79.4	58.4	91.1	78.5	77.2	57.8	96.6	81.1	71.4	87.2	74.1	90.1	83.4	viability, T/C [21]: 95.5%; viability, T/C [22]: 109%; viability, T/C [23]: 96.1%; viability, T/C [24]: 93.8%; viability, T/C [25]: 95.4%; viability, T/C [26]: 96.5%; viability, T/C [12]: 53.8%; viability, T/C [27]: 99.4%; viability, T/C [28]: 97.7%; viability, T/C [15]: 69.2%; viability, T/C [16]: 56.4%; viability, T/C [29]: 97.7%; viability, T/C [30]: 99%; viability, T/C [19]: 77.2%; viability, T/C [20]: 56.4%
NC1CCC(NC2CC2c2ccccc2)CC1 (stereo not given) + CNC(C)C(=O)NC1CN(S(=O)(=O)c2cccc(S(=O)(=O)N3CCC4CCC(C(=O)NC(c5ccccc5)c5ccccc5)N4C(=O)C(NC(=O)C(C)NC)C3)c2)CCC2CCC(C(=O)NC(c3ccccc3)c3ccccc3)N2C1=O	> 100	> 100	> 100	> 100	> 100	84.2	91			80.2	80.4			82.9	89.7		88.1	105	84	90.2	viability, T/C (second compound 0.01 µM, first compound 0.000316 µM): 93.4%; viability, T/C (second compound 0.01 µM, first compound 0.001 µM): 92.8%; viability, T/C [21]: 88.7%; viability, T/C [22]: 89.4%; viability, T/C (second compound 0.0316 µM, first compound 0.000316 µM): 106%; viability, T/C (second compound 0.0316 µM, first compound 0.001 µM): 80.6%; viability, T/C [23]: 91.8%; viability, T/C [24]: 81.8%; viability, T/C (second compound 0.1 µM, first compound 0.000316 µM): 84.8%; viability, T/C (second compound 0.1 µM, first compound 0.001 µM): 91%; viability, T/C [25]: 85.5%; viability, T/C [26]: 81.4%; viability, T/C (second compound 0.316 µM, first compound 0.000316 µM): 87.6%; viability, T/C (second compound 0.316 µM, first compound 0.001 µM): 99.3%; viability, T/C [27]: 82%; viability, T/C [28]: 80.8%; viability, T/C (second compound 1 µM, first compound 0.000316 µM): 97.2%; viability, T/C (second compound 1 µM, first compound 0.001 µM): 88.5%; viability, T/C [29]: 89.7%; viability, T/C [30]: 88%
